These results are taken from patent US8492589B2, “Alkynyl phenyl derivative compounds for treating ophthalmic diseases and disorders” (Acucela Inc., priority 2007, dated 2013).

A value given as a limit tells only on which side of the number the result lay.

The target of the experiment is T1, visual cycle isomerase (Bovine RPE microsome membranes) (Bos taurus, UniProt Q28175).
T1 construct: Bovine Retinal Pigment Epithelium (RPE) microsome membranes were the source of a visual cycle isomerase; from tissue; host or cells: bovine retinal pigment epithelium microsome membranes
T1 sequence (Q28175 2-533 limits assumed): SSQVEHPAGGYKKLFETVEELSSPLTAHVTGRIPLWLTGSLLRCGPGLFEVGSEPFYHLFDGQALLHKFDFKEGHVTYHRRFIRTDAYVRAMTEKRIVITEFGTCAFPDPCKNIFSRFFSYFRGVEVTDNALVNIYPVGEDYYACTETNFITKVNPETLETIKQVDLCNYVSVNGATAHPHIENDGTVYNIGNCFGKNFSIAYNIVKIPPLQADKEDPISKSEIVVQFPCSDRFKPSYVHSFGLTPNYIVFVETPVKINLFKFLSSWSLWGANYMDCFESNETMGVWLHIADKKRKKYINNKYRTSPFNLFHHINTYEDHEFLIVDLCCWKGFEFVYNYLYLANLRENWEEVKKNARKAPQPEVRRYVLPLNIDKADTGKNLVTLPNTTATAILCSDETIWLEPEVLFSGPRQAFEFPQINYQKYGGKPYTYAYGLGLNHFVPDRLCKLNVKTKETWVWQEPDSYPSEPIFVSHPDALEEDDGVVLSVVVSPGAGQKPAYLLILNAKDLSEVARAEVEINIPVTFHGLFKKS
The experiment can be described thus: In vitro isomerase inhibition assay, bovine RPE microsome membranes. The conditions noted are these: bovine RPE microsomes; 11-cis retinol formation. The format is biochemical. A digest of the protocol:
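Bovine RPE microsomes incubated 30 min at 37 °C with 20 μM all-trans retinol and 6 μM recombinant human apo-CRALBP in 10 mM BTP pH 7.5, 0.5% BSA, 1 mM pyrophosphate, plus compound in ethanol. 11-cis retinol formation quantified by normal-phase HPLC (A318) after heptane extraction; duplicates.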
Molecule `NCCOc1cccc(C#CC2CCCCC2)c1` [Example 80, 2-(3-(Cyclohexylethynyl)phenoxy)ethanamine] gave an IC50 of at most 1 µM.
The molecule `NCCOc1cccc(C#Cc2ccccc2)c1` [Example 81, 2-(3-(Phenylethynyl)phenoxy)-ethanamine] showed an IC50 of at most 10 µM.
The result for `NCCC(O)c1cccc(C#CC2(O)CCCCC2)c1` (stereo not drawn) [Example 99, 1-((3-(3-Amino-1-hydroxypropyl)phenyl)ethynyl)cyclohexanol] reads at most 1 µM.

One may read the IC50 as the midpoint of a concentration-inhibition curve.
